Results: patent US12161669B2, “Compositions and methods for cell targeting therapies” (UMC UTRECHT HOLDING B.V., priority 2017, dated 2024)

Key:
[1] = system: Daudi cells; experiment: sTCR YG-bead conjugation to Daudi cells; assay type: binding; details: with vs without PAM
Excerpt: The extracellular domains of the TCR chains were amplified from synthetic DNA encoding the full length TCRs. The domain boundaries were based on ones published before for Vγ9Vδ2 TCR G115. The TCR chains were ligated in to a modified pBullet vector containing a μ-phosphatase signal peptide at the 5′ end and fos zipper at the 3′ end of the construct. The TCRγ chains were ligated in a modified pBullet vector containing a μ-phosphatase signal peptide at the 5′ end and at the 3′ a jun zipper followed by a biotin acceptor peptide and a poly-histidine tag. Synthetic DNA encoding for the bacterial biotin ligase BirA was also ligated in a pBullet vector containing a signal peptide. The expression of soluble γδTCRs was done in Freestyle 293-F cells (ThermoFisher). In short, plasmids containing TCRδ, TCRγ and BirA were mixed into a 45:45:10 ratio, combined with polyethylenimine (PEI) in a 2:3 ratio and incubated for 15′ at room temperature. […]
For tetramer and dextramer staining, 1.0*10^5 cells were incubated with 30 ul tetramer or dextramer solution (100 nM with respect to SA-PE) for 30 minutes at R.T. For beads staining, 7.5*10^4 cells were incubated with 20 μl sTCR-YG-beads (0.33 mg beads/ml) for 30. […] Samples were washed once with 1% formaldehyde and analyzed on a BD FACSCanto II (BD). γδTCR enrichment to synapse and conjugate formation

[2] = system: RhoB; experiment: Intracellular RhoB distribution by confocal microscopy in cell lines; assay type: cell-based; details: cell lines (EBV-LCL 48)
Method: For intracellular immunofluorescence staining of RhoB, cells were treated with pamidronate overnight (where indicated) and were allowed to attach onto coverslips precoated with poly-Llysine (Sigma-Aldrich). […] Cells were washed with blocking serum, fixed with 4% paraformaldehyde, stained with DAPI (where indicated), and mounted onto microscopy slides using Mowiol. Images were acquired using a Zeiss confocal laser scanning microscope LSM 700. Ratios between nuclear and extranuclear signal of RhoB was determined using Volocity software (PerkinElmer) or Image J software, where DAPI staining was used, when available, to mark nuclei.

[3] = system: CD277; experiment: Flow cytometry FRET between BODIPY FL-stained membrane and anti-CD277 mAbs (CD277 conformational change), HEK 293 cells; assay type: cell-based; details: ABP vs unstimulated
Method: Conformational change of BTN3 molecule was determined similarly as described in ([…] et al., 2001). Cells were labeled with 5 ug/ml BODIPY-FL DPHE (donor) (Life Technologies) for 10 minutes on ice and then 10 minutes at 37 C, then washed extensively with ice-cold PBS. Cells were subsequently labeled with mouse anti-CD277 mAbs (either clone #20.1 or #103.2) and Alexa594-conjugated Goat anti-Mouse Fab fragments (Jackson ImmunoResearch). After washing, cells were resuspended in ice cold PBS and measured immediately using a FACS Canto-II flowcytometer (BD). FRET efficiency was calculated from the fractional decrease of the donor fluorescence in the presence of the acceptor.

[4] = system: CD277; experiment: Flow cytometry FRET of CD277 homodimerization in HEK 293 cells; assay type: cell-based; details: medium vs ABP
Method: In order to determine homodimerization of CD277 molecules, cells were co-stained with equal amount of PE-conjugated anti-CD277 (donor) and […]680-conjugated anti-CD277 (acceptor) and samples were measured using a FACS Canto-II flow cytometer (BD). FRET efficiency was calculated with equations according to Sebestyen and colleagues (Sebestyen et al., 2002) where donor fluorescence was excited at 488 nm and detected at 576±26 nm, acceptor fluorescence was excited at 635 nm and detected at 780±60 nm, whereas FRET intensity was excited at 488 nm and detected at 780±60 nm. Correction factors for the spectral overlap between the different fluorescence channels were obtained from data measured on unlabeled and single-labeled cells.

[5] = system: RhoB; experiment: Intracellular RhoB distribution in human dendritic cells; assay type: cell-based; details: human dendritic cells treated with ABP
Method: For intracellular immunofluorescence staining of RhoB, cells were treated with pamidronate overnight (where indicated) and were allowed to attach onto coverslips precoated with poly-Llysine (Sigma-Aldrich). Cells were subsequently permeabilized with Permeabilizing solution 2 (BD), blocked with blocking serum (50% pooled normal human serum in PBS), and stained with a rabbit polyclonal anti-RhoB antibody (AbCam) followed by a secondary Goat anti-Rabbit IgG Alexa Fluor 488-conjugated antibody (Jackson ImmunoResearch). Cells were washed with blocking serum, fixed with 4% paraformaldehyde, stained with DAPI (where indicated), and mounted onto microscopy slides using Mowiol. Images were acquired using a Zeiss confocal laser scanning microscope LSM 700. Ratios between nuclear and extranuclear signal of RhoB was determined using Volocity software (PerkinElmer) or Image J software, where DAPI staining was used, when available, to mark nuclei.

With `NCCC(O)(P(=O)(O)O)P(=O)(O)O` [pamidronate] the “intensity of TCR-YG-bead conjugation to Daudi cells” value [1] was “did not change”, the “Re-localization of RhoB from the nucleus or nuclear membrane to extranuclear sites” value [2] was “induced” and the “FRET between stained membrane and anti-CD277 antibodies (20.1, 103.2)” value [3] was “marked reduction in FRET signals”. For the same compound, the “pairing of CD277 molecules (homodimer FRET)” value [4] was “insensitive” and the “RhoB exclusion from the nucleus” value [5] was “excluded from the nucleus in human”.
